Earlier results, collected in PMC13517605, “In Vitro Three-Dimensional Human Liver Model for Drug-Induced Liver and Bile Duct Injury Prediction” (Toxics, 2026).

Details: maximum plasma concentration in humans

Cmax: 52.3 µM
Structure (SMILES): [H]/N=C(/N)N[C@H]1[C@H](O)[C@@H](O)[C@H](O[C@@H]2O[C@@H](C)[C@](O)(C=O)[C@H]2O[C@@H]2O[C@@H](CO)[C@H](O)[C@@H](O)[C@@H]2NC)[C@@H](N/C(N)=N\[H])[C@@H]1O [Streptomycin, streptomycin]
